Assay results as given in US8969376B2, “Pyrazolopyrimidine compounds and their use as PDE10 inhibitors” (Mitsubishi Tanabe Pharma Corporation, priority 2010, dated 2015).

Target: Bovine PDE10A (bPDE10A) (Bos taurus, UniProt A0A3Q1MHJ4)
Assay: Measurement of PDE10 inhibitory activity (PDE assay, radiolabeled nucleotide method), bovine enzyme
Format: biochemical
Settings: PDE10A of bovine (corpus striatum); substrate 3H-cAMP, final 7 nM; room temperature 90 min
Excerpt: (§1) (1) Bovine PDE10A (bPDE10A) was isolated and prepared from bovine corpus striatum, according to the methods described in the reference Fujishige et al., Eur. J. Biochem., vol. 266, pp. 1118-1127, 1999. Human PDE10A (hPDE10A) was isolated from COS-7 cells transfected with plasmids coding for human PDE10A2, according to the methods described in the reference Kotera et al., Biochem. Biophys. Res. Commun., vol. 261, pp. 551-557, 1999. The enzyme solutions obtained were used for a PDE assay.
(§2) The PDE assay was performed according to a modified method referred to a report of Kotera et al. (Kotera et al., Biochem. Pharmacol., vol. 60, pp. 1333-1341, 2000), by the radiolabeled nucleotide method.
(§3) Specifically, the measurements of the inhibitory activities were carried out in the following method.
(Method) The test compounds were dissolved in dimethyl sulfoxide (DMSO). 2 μL of the compound solution was added to 96 well plate, and the reaction mixture (20 μL of PDE enzyme solution in 50 mM Tris-HCl, pH 8.0, 40 μL of the assay buffer (50 mM Tris-HCl, pH 8.0, 2 mM MgCl2, 0.07% 2-mercaptoethanol, and 0.825 mg/mL bovine serum albumin), and 20 μL of 1 mg/mL snake venom in 50 mM Tris-HCl, pH8.0) was added to the 96 well plate. […] 50 μL of the eluate together with wash eluate with additional 100 μL methanol was collected in another plate and the radioactivity was measured. […]

Bovine PDE10A (bPDE10A), sequence (A0A3Q1MHJ4 1-1068): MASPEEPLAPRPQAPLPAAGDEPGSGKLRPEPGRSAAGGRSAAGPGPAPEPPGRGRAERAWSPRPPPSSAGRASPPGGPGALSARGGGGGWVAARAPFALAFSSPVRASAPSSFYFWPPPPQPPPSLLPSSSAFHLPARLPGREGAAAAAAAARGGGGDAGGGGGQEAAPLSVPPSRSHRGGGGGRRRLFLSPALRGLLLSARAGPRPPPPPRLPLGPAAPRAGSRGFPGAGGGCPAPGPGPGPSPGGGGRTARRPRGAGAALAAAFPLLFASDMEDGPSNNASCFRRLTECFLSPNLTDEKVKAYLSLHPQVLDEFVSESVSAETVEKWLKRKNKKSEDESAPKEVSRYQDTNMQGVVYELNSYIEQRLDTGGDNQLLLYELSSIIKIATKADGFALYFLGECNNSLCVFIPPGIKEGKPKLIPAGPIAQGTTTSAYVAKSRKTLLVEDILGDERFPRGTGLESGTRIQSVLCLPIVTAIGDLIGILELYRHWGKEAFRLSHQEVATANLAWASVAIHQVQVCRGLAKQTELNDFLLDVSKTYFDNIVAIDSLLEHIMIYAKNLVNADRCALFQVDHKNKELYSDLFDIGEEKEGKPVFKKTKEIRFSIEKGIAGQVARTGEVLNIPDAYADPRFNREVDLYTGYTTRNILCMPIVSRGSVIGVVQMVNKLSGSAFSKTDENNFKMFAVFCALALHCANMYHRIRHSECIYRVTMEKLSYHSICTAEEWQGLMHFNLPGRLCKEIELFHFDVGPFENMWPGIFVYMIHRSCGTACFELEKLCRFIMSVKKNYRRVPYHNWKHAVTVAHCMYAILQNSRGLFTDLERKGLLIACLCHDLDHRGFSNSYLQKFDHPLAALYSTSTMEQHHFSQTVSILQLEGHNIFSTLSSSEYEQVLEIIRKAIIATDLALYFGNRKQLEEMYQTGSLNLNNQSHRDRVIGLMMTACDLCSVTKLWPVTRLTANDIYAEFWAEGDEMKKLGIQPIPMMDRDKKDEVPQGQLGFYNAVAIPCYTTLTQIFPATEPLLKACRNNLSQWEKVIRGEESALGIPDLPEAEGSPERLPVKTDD

| IC50 [nM] | SMILES |
| --- | --- |
| 0.019 | COCCN(CCOC)c1cc(N2CCCC2)nc2cc(-c3nc4cc(C)ccc4nc3C)nn12 [Example 1.050, 2-(3,7-dimethylquinoxalin-2-yl)-N,N-bis(2-methoxyethyl)-5-pyrrolidin-1-ylpyrazolo[1,5-a]pyrimidin-7-amine] |

Target: Human PDE10A (hPDE10A) (Homo sapiens (Human), UniProt Q9Y233)
Assay: Measurement of PDE10 inhibitory activity (PDE assay, radiolabeled nucleotide method), human enzyme
Format: biochemical
Settings: PDE10A of human (PDE10A2 expressed in COS-7 cells); substrate 3H-cAMP, final 7 nM; room temperature 90 min
Excerpt: as §1, §2, §3
(Method) The test compounds were dissolved in dimethyl sulfoxide (DMSO). 2 μL of the compound solution was added to 96 well plate, and the reaction mixture (20 μL of PDE enzyme solution in 50 mM Tris-HCl, pH 8.0, 40 μL of the assay buffer (50 mM Tris-HCl, pH 8.0, 2 mM MgCl2, 0.07% 2-mercaptoethanol, and 0.825 mg/mL bovine serum albumin), and 20 μL of 1 mg/mL snake venom in 50 mM Tris-HCl, pH8.0) was added to the 96 well plate. The enzyme reaction was started by adding and mixing with substrate solution of 20 μL containing approximate 35 nM ^3H-cAMP in 50 mM Tris-HCl, pH 8.0. The final concentration of cAMP in the reaction mixtures was 7 nM. The reaction mixtures were incubated at room temperature for 90 min. After incubation, the reaction was stopped by adding 100 μL of methanol and resultant solutions were applied to filter plate containing Dowex (1×8 200-400) and centrifuged. 50 μL of the eluate together with wash eluate with additional 100 μL methanol was collected in another plate and the radioactivity was measured.
(2) The compounds in the Examples below were tested for PDE inhibition using the Method described above.

Human PDE10A (hPDE10A), sequence (Q9Y233 267-1055): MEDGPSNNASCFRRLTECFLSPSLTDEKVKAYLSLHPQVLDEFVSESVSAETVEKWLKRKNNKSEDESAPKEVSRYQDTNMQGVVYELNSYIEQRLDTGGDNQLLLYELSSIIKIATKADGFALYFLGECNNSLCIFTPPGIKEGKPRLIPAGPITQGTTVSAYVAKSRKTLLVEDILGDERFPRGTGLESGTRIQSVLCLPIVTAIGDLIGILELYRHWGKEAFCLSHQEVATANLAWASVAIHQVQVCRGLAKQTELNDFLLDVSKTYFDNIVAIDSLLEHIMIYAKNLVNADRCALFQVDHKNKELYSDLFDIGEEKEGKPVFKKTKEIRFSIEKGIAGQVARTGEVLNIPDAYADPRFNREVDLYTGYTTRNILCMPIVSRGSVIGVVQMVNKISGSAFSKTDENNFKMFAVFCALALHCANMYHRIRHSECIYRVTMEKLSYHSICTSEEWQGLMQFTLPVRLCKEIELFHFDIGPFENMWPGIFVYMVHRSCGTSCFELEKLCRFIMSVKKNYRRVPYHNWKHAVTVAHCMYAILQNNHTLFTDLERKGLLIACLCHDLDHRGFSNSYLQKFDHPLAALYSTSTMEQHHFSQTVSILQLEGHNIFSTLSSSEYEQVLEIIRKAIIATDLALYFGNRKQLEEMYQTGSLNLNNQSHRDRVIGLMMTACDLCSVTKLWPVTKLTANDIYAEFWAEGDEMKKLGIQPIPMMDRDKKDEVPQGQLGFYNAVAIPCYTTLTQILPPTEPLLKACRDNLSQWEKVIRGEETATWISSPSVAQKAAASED

| SMILES | IC50 [nM] |
| --- | --- |
| Cc1nc2c(nc1-c1cc3nc(N4CCCC4)cc(N[C@H]4CC[C@](C)(O)CC4)n3n1)CCCO2 [Example 1.173, trans-1-methyl-4-{[2-(3-methyl-7,8-dihydro-6H-pyrano[2,3-b]pyrazin-2-yl)-5-pyrrolidin-1-ylpyrazolo[1,5-a]pyrimidin-7-yl]amino}cyclohexanol] | 0.27 |
| Cc1nc2ccc(F)cc2nc1-c1cc2nc(N3CC[C@H](F)C3)cc(N[C@H]3CC[C@@](C)(O)CC3)n2n1 [Example 1.175, cis-4-({2-(7-fluoro-3-methylquinoxalin-2-yl)-5-[(3R)-3-fluoropyrrolidin-1-yl]pyrazolo[1,5-a]pyrimidin-7-yl}amino)-1-methylcyclohexanol] | 0.12 |
| CCCc1cnc(C)c(-c2cc3nc(N4CCCC4)cc(N(C)C4CCOCC4)n3n2)n1 [Example 1.181, N-methyl-2-(3-methyl-6-propylpyrazin-2-yl)-5-pyrrolidin-1-yl-N-(tetrahydro-2H-pyran-4-yl)pyrazolo[1,5-a]pyrimidin-7-amine] | 0.64 |
| Cc1cn2nccc2nc1-c1cc2nc(N3CCCC3)cc(NCC(C)(C)O)n2n1 [Example 1.184, 2-methyl-1-[(6′-methyl-5-pyrrolidin-1-yl-2,5′-bipyrazolo[1,5-a]pyrimidin-7-yl)amino]propan-2-ol] | 2.5 |
| Cc1nc(C)c(-c2cc3nc(N4CCCC4)cc(NCC(C)(C)O)n3n2)nc1CC(C)C [Example 1.187, 1-{[2-(6-isobutyl-3,5-dimethylpyrazin-2-yl)-5-pyrrolidin-1-ylpyrazolo[1,5-a]pyrimidin-7-yl]amino}-2-methylpropan-2-ol] | 0.6 |
| Cc1nc(C)c(C2CC2)nc1-c1cc2nc(N3CCCC3)cc(NCC(C)(C)O)n2n1 [Example 1.189, 1-{[2-(6-cyclopropyl-3,5-dimethylpyrazin-2-yl)-5-pyrrolidin-1-ylpyrazolo[1,5-a]pyrimidin-7-yl]amino}-2-methylpropan-2-ol] | 0.18 |
| Cc1nc(C)c(C2CC2)nc1-c1cc2nc(N3CCCC3)cc(NC3CCOCC3)n2n1 [Example 1.190, 2-(6-cyclopropyl-3,5-dimethylpyrazin-2-yl)-5-pyrrolidin-1-yl-N-(tetrahydro-2H-pyran-4-yl)pyrazolo[1,5-a]pyrimidin-7-amine] | 0.69 |
| Cc1nc2c(nc1-c1cc3nc(N4CCCC4)cc(NC4CCOCC4)n3n1)CCCO2 [Example 1.197, 2-(3-methyl-7,8-dihydro-6H-pyrano[2,3-b]pyrazin-2-yl)-5-pyrrolidin-1-yl-N-(tetrahydro-2H-pyran-4-yl)pyrazolo[1,5-a]pyrimidin-7-amine] | 2.5 |
| Cc1nc2c(nc1-c1cc3nc(N4CCCC4)cc(NCC(C)(C)O)n3n1)CCCO2 [Example 1.198, 2-methyl-1-{[2-(3-methyl-7,8-dihydro-6H-pyrano[2,3-b]pyrazin-2-yl)-5-pyrrolidin-1-ylpyrazolo[1,5-a]pyrimidin-7-yl]amino}propan-2-ol] | 0.82 |
| CO[C@H]1CC[C@H](Nc2cc(N3CCCC3)nc3cc(-c4nc5c(nc4C)OCCC5)nn23)CC1 [Example 1.199, N-(trans-4-methoxycyclohexyl)-2-(3-methyl-7,8-dihydro-6H-pyrano[2,3-b]pyrazin-2-yl)-5-pyrrolidin-1-ylpyrazolo[1,5-a]pyrimidin-7-amine] | 0.89 |
| Cc1nc2ccncc2nc1-c1cc2nc(N3CCCC3)cc(NC3CCOCC3)n2n1 [Example 5.001, 2-(2-methylpyrido[3,4-b]pyrazin-3-yl)-5-pyrrodin-1-yl-N-(tetrahydro-2H-pyran-4-yl)pyrazolo[1,5-a]pyrimidin-7-amine] | 0.15 |
| Cc1nc2cnccc2nc1-c1cc2nc(N3CCCC3)cc(NC3CCOCC3)n2n1 [Example 5.002, 2-(3-methylpyrido[3,4-b]pyrazin-2-yl)-5-pyrrolidin-1-yl-N-(tetrahydro-2H-pyran-4-yl)pyrazolo[1,5-a]pyrimidin-7-amine] | 0.28 |
